Assays:
[1] = biological target: GDP-bound NRAS wild-type protein (Homo sapiens, UniProt P01111); assay: Binding to NRAS by surface plasmon resonance (SPR), Single Cycle Kinetics; details: KD ratio, GDP-bound NRAS wild-type vs GDP-bound KRAS wild-type, SPR
[2] = biological target: GDP-bound HRAS wild-type protein (Homo sapiens, UniProt P01112); assay: Binding to HRAS by surface plasmon resonance (SPR), Single Cycle Kinetics; details: KD ratio, GDP-bound HRAS wild-type vs GDP-bound KRAS wild-type, SPR
Chain of GDP-bound HRAS wild-type protein (P01112 whole entry): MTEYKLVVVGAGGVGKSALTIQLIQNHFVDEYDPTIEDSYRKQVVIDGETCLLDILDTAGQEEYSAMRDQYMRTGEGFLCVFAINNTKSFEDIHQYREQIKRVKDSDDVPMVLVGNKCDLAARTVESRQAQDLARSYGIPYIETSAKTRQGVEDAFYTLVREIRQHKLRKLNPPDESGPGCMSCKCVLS

Chain of GDP-bound NRAS wild-type protein (P01111 whole entry): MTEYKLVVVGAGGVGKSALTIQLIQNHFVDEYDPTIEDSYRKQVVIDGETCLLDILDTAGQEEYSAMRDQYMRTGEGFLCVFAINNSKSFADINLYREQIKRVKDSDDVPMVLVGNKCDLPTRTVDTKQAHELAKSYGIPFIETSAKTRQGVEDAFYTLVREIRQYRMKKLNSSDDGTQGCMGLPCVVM

SMILES	NRAS/KRAS (ratio of KD value with respect to NRAS to KD value with respect to KRAS) [1]	HRAS/KRAS (ratio of KD value with respect to HRAS to KD value with respect to KRAS) [2]
CCO[C@@H]1C[C@H]2C(=O)NC3(CCC3)C(=O)N(C)[C@@H](C3CCCC3)C(=O)N(C)[C@H](C(=O)N(C)C)CC(=O)N(C)[C@@H](CC)C(=O)N[C@@H]([C@@H](C)CC)C(=O)N(C)CC(=O)N(C)[C@H]3CCCCCN(C3=O)[C@@H](Cc3ccc(F)cc3OC)C(=O)N(C)CC(=O)N[C@@H](CCc3cc(F)c(C(F)(F)F)c(F)c3)C(=O)N2C1 [PP0914]	B (a compound having 3 or more and less than 10 is denoted as B)	B (a compound having 3 or more and less than 10 is denoted as B)
CCO[C@@H]1C[C@H]2C(=O)NC3(CCC3)C(=O)N(C)[C@@H](C3CCCC3)C(=O)N(C)[C@H](C(=O)N(C)C)CC(=O)N(C)[C@@H](CC)C(=O)N[C@@H]([C@@H](C)CC)C(=O)N(C)CC(=O)N(C)[C@H]3CCCCCN(C3=O)[C@@H](Cc3ccc(F)c(OC)c3)C(=O)N(C)CC(=O)N[C@@H](CCc3cc(F)c(C(F)(F)F)c(F)c3)C(=O)N2C1 [PP0915]	B (a compound having 3 or more and less than 10 is denoted as B)	B (a compound having 3 or more and less than 10 is denoted as B)
CCO[C@@H]1C[C@H]2C(=O)NC3(CCC3)C(=O)N(C)[C@@H](C3CCCC3)C(=O)N(C)[C@H](C(=O)N3CCOCC3)CC(=O)N(C)[C@@H](CC(C)C)C(=O)N[C@@H]([C@@H](C)CC)C(=O)N(C)CC(=O)N(C)[C@H]3CCCCCN(C3=O)[C@@H](Cc3ccc(F)c(F)c3)C(=O)N(C)CC(=O)N[C@@H](CCc3cc(F)c(C(F)(F)F)c(F)c3)C(=O)N2C1 [PP0917]	B (a compound having 3 or more and less than 10 is denoted as B)	B (a compound having 3 or more and less than 10 is denoted as B)
CCO[C@@H]1C[C@H]2C(=O)NC3(CCC3)C(=O)N(C)[C@@H](C3CCCC3)C(=O)N(C)[C@H](C(=O)N3CCOCC3)CC(=O)N(C)[C@@H](CC(C)C)C(=O)N[C@@H]([C@@H](C)CC)C(=O)N(C)CC(=O)N(C)[C@H]3CCCCCN(C3=O)[C@@H](Cc3ccc(F)cc3Cl)C(=O)N(C)CC(=O)N[C@@H](CCc3cc(F)c(C(F)(F)F)c(F)c3)C(=O)N2C1 [PP0918]	B (a compound having 3 or more and less than 10 is denoted as B)	B (a compound having 3 or more and less than 10 is denoted as B)
CCO[C@@H]1C[C@H]2C(=O)NC3(CCC3)C(=O)N(C)[C@@H](C3CCCC3)C(=O)N(C)[C@H](C(=O)N3CCOCC3)CC(=O)N(C)[C@@H](CC(C)C)C(=O)N[C@@H]([C@@H](C)CC)C(=O)N(C)CC(=O)N(C)[C@H]3CCCCCN(C3=O)[C@@H](Cc3ccc(F)c(Cl)c3)C(=O)N(C)CC(=O)N[C@@H](CCc3cc(F)c(C(F)(F)F)c(F)c3)C(=O)N2C1 [PP0919]	B (a compound having 3 or more and less than 10 is denoted as B)	B (a compound having 3 or more and less than 10 is denoted as B)
CCO[C@@H]1C[C@H]2C(=O)NC3(CCC3)C(=O)N(C)[C@@H](C3CCCC3)C(=O)N(C)[C@H](C(=O)N3CCOCC3)CC(=O)N(C)[C@@H](CC(C)C)C(=O)N[C@@H]([C@@H](C)CC)C(=O)N(C)CC(=O)N(C)[C@H]3CCCCCN(C3=O)[C@@H](Cc3ccc4sccc4c3)C(=O)N(C)CC(=O)N[C@@H](CCc3cc(F)c(C(F)(F)F)c(F)c3)C(=O)N2C1 [PP0920]	B (a compound having 3 or more and less than 10 is denoted as B)	B (a compound having 3 or more and less than 10 is denoted as B)
CCO[C@@H]1C[C@H]2C(=O)NC3(CCC3)C(=O)N(C)[C@@H](C3CCCC3)C(=O)N(C)[C@H](C(=O)N3CCOCC3)CC(=O)N(C)[C@@H](CC(C)C)C(=O)N[C@@H]([C@@H](C)CC)C(=O)N(C)CC(=O)N(C)[C@H]3CCCCCN(C3=O)[C@@H](Cc3ccc4ccsc4c3)C(=O)N(C)CC(=O)N[C@@H](CCc3cc(F)c(C(F)(F)F)c(F)c3)C(=O)N2C1 [PP0921]	B (a compound having 3 or more and less than 10 is denoted as B)	B (a compound having 3 or more and less than 10 is denoted as B)
CCO[C@@H]1C[C@H]2C(=O)NC3(CCC3)C(=O)N(C)[C@@H](C3CCCC3)C(=O)N(C)[C@H](C(=O)N3CCOCC3)CC(=O)N(C)[C@@H](CC(C)C)C(=O)N[C@@H]([C@@H](C)CC)C(=O)N(C)CC(=O)N(C)[C@H]3CCCCCN(C3=O)[C@@H](Cc3ccc(F)c(C)c3)C(=O)N(C)CC(=O)N[C@@H](CCc3cc(F)c(C(F)(F)F)c(F)c3)C(=O)N2C1 [PP0922]	B (a compound having 3 or more and less than 10 is denoted as B)	B (a compound having 3 or more and less than 10 is denoted as B)
CCO[C@@H]1C[C@H]2C(=O)NC3(CCC3)C(=O)N(C)[C@@H](C3CCCC3)C(=O)N(C)[C@H](C(=O)N3CCOCC3)CC(=O)N(C)[C@@H](CC(C)C)C(=O)N[C@@H]([C@@H](C)CC)C(=O)N(C)CC(=O)N(C)[C@H]3CCCCCN(C3=O)[C@@H](Cc3nccs3)C(=O)N(C)CC(=O)N[C@@H](CCc3cc(F)c(C(F)(F)F)c(F)c3)C(=O)N2C1 [PP0923]	B (a compound having 3 or more and less than 10 is denoted as B)	B (a compound having 3 or more and less than 10 is denoted as B)
CCO[C@@H]1C[C@H]2C(=O)NC3(CCC3)C(=O)N(C)[C@@H](C3CCCC3)C(=O)N(C)[C@H](C(=O)N3CCOCC3)CC(=O)N(C)[C@@H](CC(C)C)C(=O)N[C@@H]([C@@H](C)CC)C(=O)N(C)CC(=O)N(C)[C@H]3CCCCCN(C3=O)[C@@H](Cc3ccc(F)cc3OC)C(=O)N(C)CC(=O)N[C@@H](CCc3cc(F)c(C(F)(F)F)c(F)c3)C(=O)N2C1 [PP0924]	B (a compound having 3 or more and less than 10 is denoted as B)	B (a compound having 3 or more and less than 10 is denoted as B)
CCO[C@@H]1C[C@H]2C(=O)NC3(CCC3)C(=O)N(C)[C@@H](C3CCCC3)C(=O)N(C)[C@H](C(=O)N3CCOCC3)CC(=O)N(C)[C@@H](Cc3ccccc3F)C(=O)N[C@@H]([C@@H](C)CC)C(=O)N(C)CC(=O)N(C)[C@H]3CCCCCN(C3=O)[C@@H](Cc3ccc(C(F)(F)F)cc3)C(=O)N(C)CC(=O)N[C@@H](CCc3cc(F)c(C(F)(F)F)c(F)c3)C(=O)N2C1 [PP0926]	B (a compound having 3 or more and less than 10 is denoted as B)	B (a compound having 3 or more and less than 10 is denoted as B)
CCO[C@@H]1C[C@H]2C(=O)NC3(CCC3)C(=O)N(C)[C@@H](C3CCCC3)C(=O)N(C)[C@H](C(=O)N3CCOCC3)CC(=O)N(C)[C@@H](Cc3ccc(F)c(F)c3)C(=O)N[C@@H]([C@@H](C)CC)C(=O)N(C)CC(=O)N(C)[C@H]3CCCCCN(C3=O)[C@@H](Cc3ccc(C(F)(F)F)cc3)C(=O)N(C)CC(=O)N[C@@H](CCc3cc(F)c(C(F)(F)F)c(F)c3)C(=O)N2C1 [PP0928]	A (a compound having 10 or more and less than 20 is denoted as A)	B (a compound having 3 or more and less than 10 is denoted as B)
CCO[C@@H]1C[C@H]2C(=O)NC3(CCC3)C(=O)N(C)[C@@H](C3CCCC3)C(=O)N(C)[C@H](C(=O)N3CCOCC3)CC(=O)N(C)[C@@H](Cc3ccccc3Cl)C(=O)N[C@@H]([C@@H](C)CC)C(=O)N(C)CC(=O)N(C)[C@H]3CCCCCN(C3=O)[C@@H](Cc3ccc(C(F)(F)F)cc3)C(=O)N(C)CC(=O)N[C@@H](CCc3cc(F)c(C(F)(F)F)c(F)c3)C(=O)N2C1 [PP0929]	A (a compound having 10 or more and less than 20 is denoted as A)	B (a compound having 3 or more and less than 10 is denoted as B)
CCO[C@@H]1C[C@H]2C(=O)NC3(CCC3)C(=O)N(C)[C@@H](C3CCCC3)C(=O)N(C)[C@H](C(=O)N3CCOCC3)CC(=O)N(C)[C@@H](Cc3ccccc3C)C(=O)N[C@@H]([C@@H](C)CC)C(=O)N(C)CC(=O)N(C)[C@H]3CCCCCN(C3=O)[C@@H](Cc3ccc(C(F)(F)F)cc3)C(=O)N(C)CC(=O)N[C@@H](CCc3cc(F)c(C(F)(F)F)c(F)c3)C(=O)N2C1 [PP0931]	A (a compound having 10 or more and less than 20 is denoted as A)	B (a compound having 3 or more and less than 10 is denoted as B)
CCO[C@@H]1C[C@H]2C(=O)NC3(CCC3)C(=O)N(C)[C@@H](C3CCCC3)C(=O)N(C)[C@H](C(=O)N3CCOCC3)CC(=O)N(C)[C@@H](Cc3cccc(C)c3)C(=O)N[C@@H]([C@@H](C)CC)C(=O)N(C)CC(=O)N(C)[C@H]3CCCCCN(C3=O)[C@@H](Cc3ccc(C(F)(F)F)cc3)C(=O)N(C)CC(=O)N[C@@H](CCc3cc(F)c(C(F)(F)F)c(F)c3)C(=O)N2C1 [PP0932]	B (a compound having 3 or more and less than 10 is denoted as B)	B (a compound having 3 or more and less than 10 is denoted as B)
